Drawing on PubChem BioAssay (NCI), this text covers TGI for 14 molecules.

Among the test systems are A549 NSCLC; DU-145 prostate; EKVX NSCLC; HCC-2998 colon; HCT-15 colon; HOP-92 NSCLC; HS 578T breast; M14 melanoma; MDA-N; NCI-H226 lung; OVCAR-5 ovarian; RPMI-8226 leukemia; SK-MEL-5 melanoma; SK-OV-3 ovarian; TK-10 renal; MDA-MB-435.
What all share (assay): NCI anticancer screen, dose series, 48 h

Structures are written as SMILES.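 Cells were grown in 96-well plates and exposed to each compound for 48 hours at five concentrations; endpoints were interpolated linearly between bracketing concentrations, or set to the highest concentration if not reached. Definition used: TGI = concentration required for complete inhibition of growth.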 Bounds are passed on as bounds.

In the case of `Cc1cccc2nc(-c3ccccc3)cc(=O)n12`, the TGI in the assay with A549 NSCLC, with DU-145 prostate, in the assay with EKVX NSCLC, with HCC-2998 colon, in the assay on HCT-15 colon and in the assay on HOP-92 NSCLC was over 100 µM throughout. The TGI in the assay on HS 578T breast, with M14 melanoma, with MDA-N, in the assay with NCI-H226 lung, in the assay with OVCAR-5 ovarian and with RPMI-8226 leukemia was over 100 µM in each case. Besides, the TGI with SK-MEL-5 melanoma, in the assay on SK-OV-3 ovarian and in the assay with TK-10 renal was over 100 µM throughout.
Consider `Cc1cccc(N/C(=C(/C(Cl)=C(Cl)Cl)[N+](=O)[O-])n2nnc3ccccc32)c1`, for which the TGI in the assay on A549 NSCLC was 36 µM; in the assay on EKVX NSCLC, 39.6 µM; in the assay with HCC-2998 colon, over 100 µM; in the assay with HCT-15 colon, 42.3 µM; in the assay with HS 578T breast it was 21.8 µM; with M14 melanoma, 47.5 µM. Further, the TGI with MDA-MB-435 is 38.8 µM; with MDA-N, 64.9 µM; in the assay with NCI-H226 lung it was 26.6 µM; in the assay with OVCAR-5 ovarian, 38 µM; with RPMI-8226 leukemia, over 100 µM; with SK-OV-3 ovarian, 49.9 µM.
For `[O-][n+]1nc(N2CCOCC2)nc2ccccc21`, the TGI in the assay on A549 NSCLC, in the assay with DU-145 prostate, in the assay on EKVX NSCLC, in the assay with HCC-2998 colon, with HCT-15 colon and in the assay on HS 578T breast was over 100 µM throughout. Also, the TGI in the assay on M14 melanoma, in the assay on MDA-MB-435, with MDA-N, in the assay on NCI-H226 lung, in the assay on OVCAR-5 ovarian and in the assay with RPMI-8226 leukemia was over 100 µM each time. Moreover, the TGI in the assay on SK-OV-3 ovarian and in the assay on TK-10 renal was over 100 µM in each case.
Turning to `CC(=O)O[C@H]1C(=O)[C@@]2(C)[C@H]([C@H](OC(=O)c3ccccc3)[C@]3(O)C[C@H](OC(=O)[C@H](O)[C@@H](NC(=O)c4ccc(N)cc4)c4ccccc4)C(C)=C1C3(C)C)[C@]1(OC(C)=O)CO[C@@H]1C[C@@H]2O`, the TGI in the assay on A549 NSCLC was over 50 µM; with DU-145 prostate, 31.4 µM; in the assay on EKVX NSCLC it was over 50 µM; in the assay on HCC-2998 colon, 0.0545 µM; in the assay on HCT-15 colon, over 50 µM; with HOP-92 NSCLC, over 50 µM. Further, the TGI with HS 578T breast was 0.0126 µM; in the assay on M14 melanoma it was over 50 µM; in the assay with MDA-N, under 0.005 µM; in the assay with NCI-H226 lung it was 0.00862 µM; in the assay on OVCAR-5 ovarian, over 50 µM; in the assay with RPMI-8226 leukemia it was under 0.005 µM. The TGI with SK-MEL-5 melanoma and in the assay with TK-10 renal was over 50 µM throughout.
For `Cc1cn(C2OC(CO[Si](C)(C)C(C)(C)C)/C(=C\C#N)C2O[Si](C)(C)C(C)(C)C)c(=O)[nH]c1=O` (stereo not drawn), the TGI in the assay with A549 NSCLC, in the assay on DU-145 prostate, with HCT-15 colon, with HOP-92 NSCLC, with HS 578T breast and with M14 melanoma was over 100 µM each time. The TGI in the assay on MDA-MB-435, in the assay with MDA-N, in the assay with NCI-H226 lung, in the assay with OVCAR-5 ovarian, with RPMI-8226 leukemia and in the assay on SK-MEL-5 melanoma was over 100 µM throughout. The TGI in the assay on SK-OV-3 ovarian and in the assay on TK-10 renal was over 100 µM each time.
Take `O=S(=O)(/N=S(/Nc1ccccc1)C(Cl)Cl)c1ccccc1` (stereo not drawn): the TGI in the assay with A549 NSCLC, in the assay on DU-145 prostate, in the assay on EKVX NSCLC, in the assay on HCT-15 colon, in the assay on HOP-92 NSCLC and in the assay on HS 578T breast was over 100 µM in each case. Also, the TGI with M14 melanoma, with MDA-MB-435, in the assay with MDA-N, in the assay on NCI-H226 lung, in the assay with OVCAR-5 ovarian and in the assay with RPMI-8226 leukemia was over 100 µM throughout. In addition, the TGI in the assay on SK-OV-3 ovarian and with TK-10 renal was over 100 µM each time.
Regarding `CC[C@]12C=CCN3CC[C@@]4(c5cc(Br)c(OC)c([N+](=O)[O-])c5N(C)[C@H]4[C@@](O)(C(=O)OC)[C@@H]1OC(C)=O)[C@@H]32`, the TGI with A549 NSCLC is over 100 µM; with DU-145 prostate, over 100 µM; in the assay on EKVX NSCLC, 91.4 µM; with HCT-15 colon, over 100 µM; in the assay with HS 578T breast, over 100 µM; in the assay with M14 melanoma, over 100 µM. In addition, the TGI with MDA-MB-435, with MDA-N, in the assay on NCI-H226 lung, with OVCAR-5 ovarian, in the assay with RPMI-8226 leukemia and in the assay on SK-MEL-5 melanoma was over 100 µM throughout. Moreover, the TGI in the assay on SK-OV-3 ovarian and in the assay with TK-10 renal was over 100 µM throughout.
For the molecule `O=C(O)c1cccc(Nc2c(C(=O)O)cccc2[N+](=O)[O-])c1`, the TGI with A549 NSCLC, in the assay with DU-145 prostate, in the assay with EKVX NSCLC, in the assay on HCC-2998 colon, in the assay with HCT-15 colon and with HOP-92 NSCLC was over 100 µM each time. Also, the TGI with HS 578T breast, in the assay on M14 melanoma, with MDA-N, with OVCAR-5 ovarian, in the assay with RPMI-8226 leukemia and in the assay with SK-MEL-5 melanoma was over 100 µM each time. The TGI with SK-OV-3 ovarian and with TK-10 renal was over 100 µM in each case.
For `Cc1cc(S(=O)(=O)Nc2nc(N)nc(N3N=CCC3C)n2)c(SCC(=O)O)cc1Cl` (stereo not drawn), the TGI with A549 NSCLC, in the assay with DU-145 prostate, with EKVX NSCLC, in the assay with HCC-2998 colon, in the assay with HCT-15 colon and in the assay with HS 578T breast was over 10 µM each time. Further, the TGI in the assay on M14 melanoma, in the assay on MDA-MB-435, in the assay on MDA-N, in the assay on NCI-H226 lung, in the assay with OVCAR-5 ovarian and in the assay on RPMI-8226 leukemia was over 10 µM in each case. Moreover, the TGI in the assay with SK-MEL-5 melanoma, with SK-OV-3 ovarian and in the assay with TK-10 renal was over 10 µM each time.
Consider `Cc1c(N=Nc2ccccc2)c(-c2ccccc2)n(C2OC(CO)C(O)C(O)C2O)c(=S)c1C#N` (stereo not drawn), for which the TGI in the assay with A549 NSCLC is 21.5 µM; in the assay with DU-145 prostate it was 41.7 µM; in the assay with EKVX NSCLC it was 42.5 µM; in the assay with HCC-2998 colon, 30.9 µM; in the assay on HCT-15 colon it was 25.5 µM; with HS 578T breast it was over 100 µM. Moreover, the TGI in the assay with M14 melanoma is 19.3 µM; in the assay with MDA-MB-435 it was 19.5 µM; with MDA-N, 20.1 µM; in the assay with NCI-H226 lung, 28.5 µM; in the assay on OVCAR-5 ovarian it was 28.9 µM; with RPMI-8226 leukemia, over 100 µM. The TGI was 23 µM with SK-OV-3 ovarian and 26.9 µM with TK-10 renal.
On to `CN(CCC(=O)N1CC(CCl)c2ccc([N+](=O)[O-])cc21)CCC(=O)N1CC(CCl)c2ccc([N+](=O)[O-])cc21` (stereo not drawn), for which the TGI in the assay with A549 NSCLC was over 100 µM; in the assay on DU-145 prostate, over 100 µM; in the assay on EKVX NSCLC, 42.7 µM; in the assay on HCC-2998 colon it was 18.2 µM; in the assay on HCT-15 colon it was 25.9 µM; with HS 578T breast, 17.7 µM. The TGI is 21.7 µM in the assay on M14 melanoma; 27.5 µM in the assay on MDA-MB-435; 30.9 µM in the assay with MDA-N; over 100 µM in the assay on NCI-H226 lung; over 100 µM in the assay with OVCAR-5 ovarian; 13.9 µM in the assay on RPMI-8226 leukemia. In addition, the TGI with SK-MEL-5 melanoma is 24.8 µM; in the assay with SK-OV-3 ovarian it was over 100 µM; in the assay with TK-10 renal it was 32 µM.
Turning to `NC(CSS(=O)(=O)O)=NC1CC2CCC1C2` (stereo not drawn), the TGI in the assay with A549 NSCLC, in the assay on DU-145 prostate, in the assay on HCT-15 colon, in the assay with HOP-92 NSCLC, in the assay on HS 578T breast and with M14 melanoma was over 100 µM in each case. For the same molecule, the TGI in the assay on MDA-MB-435, in the assay on MDA-N, in the assay with NCI-H226 lung, in the assay on RPMI-8226 leukemia, in the assay on SK-MEL-5 melanoma and in the assay with SK-OV-3 ovarian was over 100 µM each time. This molecule also gave a TGI in the assay with TK-10 renal of over 100 µM.
With `CC(C)(C)c1cc(S(=O)(=O)O)c2oc(-c3ccccc3)cc(=O)c2c1`, the TGI in the assay with A549 NSCLC, with DU-145 prostate, in the assay on EKVX NSCLC, with HCC-2998 colon, in the assay with HCT-15 colon and in the assay on HS 578T breast was over 100 µM throughout. Moreover, the TGI in the assay on MDA-MB-435, in the assay on MDA-N, with NCI-H226 lung, in the assay with RPMI-8226 leukemia, in the assay with SK-MEL-5 melanoma and with TK-10 renal was over 100 µM each time.
In the case of `COc1ccccc1C[C@@H]1OC2(C=CC(=O)CC2SC(=O)c2ccccc2)O[C@H]1Cc1ccccc1OC` (stereo partly drawn), the TGI with A549 NSCLC came out at 8.67 µM; in the assay on DU-145 prostate, 18 µM; in the assay on HCT-15 colon, 4.75 µM; in the assay with HOP-92 NSCLC it was 3.31 µM; with HS 578T breast, 4.73 µM; with M14 melanoma it was 3.26 µM. The TGI in the assay with MDA-MB-435 was determined as 4.61 µM; with MDA-N, 6.16 µM; in the assay on OVCAR-5 ovarian, 2.63 µM; in the assay on RPMI-8226 leukemia it was 0.943 µM; with SK-MEL-5 melanoma it was 3.1 µM; in the assay on SK-OV-3 ovarian it was 5.04 µM. This molecule registered a TGI in the assay with TK-10 renal of 5.07 µM.
